The record followed here is ChEMBL document CHEMBL1909046, “DrugMatrix in vitro pharmacology data”.

Assay [1] concerns the target Vascular endothelial growth factor receptor 1 (Homo sapiens, UniProt P17948). The experiment in a line: biochemical. The assay is classed as cell-based, HUVEC. The settings on record: huvec. Note: in other assays of this panel Not Active means under 50% inhibition at 10 µM.
For the next assay, the target named is T1, Interstitial collagenase (Homo sapiens, UniProt P03956).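 Note: MMP-1 enzyme inhibition assay using a peptide substrate; in other assays of this panel Not Active means under 50% inhibition at 10 µM.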
T1 sequence (P03956 whole entry): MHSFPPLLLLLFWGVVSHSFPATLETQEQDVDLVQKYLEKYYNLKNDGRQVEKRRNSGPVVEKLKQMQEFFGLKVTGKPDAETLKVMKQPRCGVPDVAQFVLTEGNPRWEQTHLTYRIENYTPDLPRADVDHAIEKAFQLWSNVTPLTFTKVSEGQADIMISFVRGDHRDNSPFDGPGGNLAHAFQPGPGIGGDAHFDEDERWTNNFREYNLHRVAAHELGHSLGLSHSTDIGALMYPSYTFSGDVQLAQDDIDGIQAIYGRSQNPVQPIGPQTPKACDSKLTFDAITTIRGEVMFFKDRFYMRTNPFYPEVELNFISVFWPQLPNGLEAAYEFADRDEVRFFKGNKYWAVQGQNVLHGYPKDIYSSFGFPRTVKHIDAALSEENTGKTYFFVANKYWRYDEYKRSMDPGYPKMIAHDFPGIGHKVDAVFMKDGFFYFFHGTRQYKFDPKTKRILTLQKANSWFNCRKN
In words: biochemical. The assay is classed as tissue-based, Rheumatoid synovial fibroblasts.

For assay [2], the target named is Prostaglandin G/H synthase 1 (Homo sapiens, UniProt P23219). In words: biochemical. Format: tissue-based, Platelet.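 Note: inhibition of COX-1 enzyme activity, with arachidonic acid supplied as substrate; in other assays of this panel Not Active means under 50% inhibition at 10 µM.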
Sequence of Prostaglandin G/H synthase 1 (P23219 whole entry): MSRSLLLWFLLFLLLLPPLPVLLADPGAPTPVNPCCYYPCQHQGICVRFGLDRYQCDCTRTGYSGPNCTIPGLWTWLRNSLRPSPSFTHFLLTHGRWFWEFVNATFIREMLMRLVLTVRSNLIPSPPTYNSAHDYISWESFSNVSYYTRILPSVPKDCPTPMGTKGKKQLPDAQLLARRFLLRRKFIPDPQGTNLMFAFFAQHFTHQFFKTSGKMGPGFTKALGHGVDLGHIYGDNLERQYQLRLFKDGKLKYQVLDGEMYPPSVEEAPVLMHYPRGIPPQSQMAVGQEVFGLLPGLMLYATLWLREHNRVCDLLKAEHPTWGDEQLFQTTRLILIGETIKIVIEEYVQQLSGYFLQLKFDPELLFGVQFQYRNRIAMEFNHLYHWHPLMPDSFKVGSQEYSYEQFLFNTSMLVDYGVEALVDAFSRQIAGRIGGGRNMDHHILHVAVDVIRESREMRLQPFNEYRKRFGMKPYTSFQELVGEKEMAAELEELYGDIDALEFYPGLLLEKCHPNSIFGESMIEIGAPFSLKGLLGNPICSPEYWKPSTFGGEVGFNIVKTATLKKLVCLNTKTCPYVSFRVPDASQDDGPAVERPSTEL
For another assay, the target named is Cytochrome P450 2D6 (Homo sapiens, UniProt P10635). Note: in other assays of this panel Not Active means under 50% inhibition at 10 µM.
Sequence of Cytochrome P450 2D6 (P10635 whole entry): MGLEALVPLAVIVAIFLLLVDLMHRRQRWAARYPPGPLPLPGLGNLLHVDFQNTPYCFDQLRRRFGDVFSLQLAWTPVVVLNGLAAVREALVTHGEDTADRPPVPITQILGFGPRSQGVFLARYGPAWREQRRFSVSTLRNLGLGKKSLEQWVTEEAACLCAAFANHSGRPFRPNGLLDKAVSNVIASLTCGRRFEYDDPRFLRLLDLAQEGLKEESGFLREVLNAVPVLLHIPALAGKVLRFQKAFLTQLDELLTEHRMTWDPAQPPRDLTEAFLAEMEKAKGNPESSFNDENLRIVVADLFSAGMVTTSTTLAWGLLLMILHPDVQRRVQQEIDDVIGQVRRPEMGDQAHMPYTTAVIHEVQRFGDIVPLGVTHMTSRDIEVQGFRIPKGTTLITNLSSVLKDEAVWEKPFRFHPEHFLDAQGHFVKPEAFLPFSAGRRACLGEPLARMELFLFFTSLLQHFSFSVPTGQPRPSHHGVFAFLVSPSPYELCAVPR
Assay [3] addresses T2, Amine oxidase [flavin-containing] A (Homo sapiens, UniProt P21397).
T2 sequence (P21397 whole entry): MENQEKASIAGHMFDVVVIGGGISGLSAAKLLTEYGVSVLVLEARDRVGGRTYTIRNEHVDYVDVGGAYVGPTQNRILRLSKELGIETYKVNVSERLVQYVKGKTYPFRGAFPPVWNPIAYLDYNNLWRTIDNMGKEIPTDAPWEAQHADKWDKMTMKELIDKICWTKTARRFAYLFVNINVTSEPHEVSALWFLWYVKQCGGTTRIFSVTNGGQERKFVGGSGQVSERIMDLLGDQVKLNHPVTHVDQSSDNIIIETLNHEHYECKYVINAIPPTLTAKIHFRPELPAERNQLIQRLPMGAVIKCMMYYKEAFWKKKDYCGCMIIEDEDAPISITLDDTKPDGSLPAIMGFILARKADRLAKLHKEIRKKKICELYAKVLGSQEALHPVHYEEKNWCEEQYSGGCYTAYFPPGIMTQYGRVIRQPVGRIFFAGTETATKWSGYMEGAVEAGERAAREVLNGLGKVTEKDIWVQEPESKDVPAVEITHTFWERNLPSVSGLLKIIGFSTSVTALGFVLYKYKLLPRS
In words: DRUGMATRIX: Monoamine Oxidase MAO-A enzyme inhibition (substrate: Kynuramine). Further details: species or system BTI-TN-5B1-4. The settings on record: bti-tn-5b1-4; Not Active = under 50% inhibition at 10 µM.

A further assay concerns the target T3, Androgen receptor (Rattus norvegicus, UniProt P15207). Note: in other assays of this panel Not Active means under 50% inhibition at 10 µM.
T3 sequence (P15207 whole entry): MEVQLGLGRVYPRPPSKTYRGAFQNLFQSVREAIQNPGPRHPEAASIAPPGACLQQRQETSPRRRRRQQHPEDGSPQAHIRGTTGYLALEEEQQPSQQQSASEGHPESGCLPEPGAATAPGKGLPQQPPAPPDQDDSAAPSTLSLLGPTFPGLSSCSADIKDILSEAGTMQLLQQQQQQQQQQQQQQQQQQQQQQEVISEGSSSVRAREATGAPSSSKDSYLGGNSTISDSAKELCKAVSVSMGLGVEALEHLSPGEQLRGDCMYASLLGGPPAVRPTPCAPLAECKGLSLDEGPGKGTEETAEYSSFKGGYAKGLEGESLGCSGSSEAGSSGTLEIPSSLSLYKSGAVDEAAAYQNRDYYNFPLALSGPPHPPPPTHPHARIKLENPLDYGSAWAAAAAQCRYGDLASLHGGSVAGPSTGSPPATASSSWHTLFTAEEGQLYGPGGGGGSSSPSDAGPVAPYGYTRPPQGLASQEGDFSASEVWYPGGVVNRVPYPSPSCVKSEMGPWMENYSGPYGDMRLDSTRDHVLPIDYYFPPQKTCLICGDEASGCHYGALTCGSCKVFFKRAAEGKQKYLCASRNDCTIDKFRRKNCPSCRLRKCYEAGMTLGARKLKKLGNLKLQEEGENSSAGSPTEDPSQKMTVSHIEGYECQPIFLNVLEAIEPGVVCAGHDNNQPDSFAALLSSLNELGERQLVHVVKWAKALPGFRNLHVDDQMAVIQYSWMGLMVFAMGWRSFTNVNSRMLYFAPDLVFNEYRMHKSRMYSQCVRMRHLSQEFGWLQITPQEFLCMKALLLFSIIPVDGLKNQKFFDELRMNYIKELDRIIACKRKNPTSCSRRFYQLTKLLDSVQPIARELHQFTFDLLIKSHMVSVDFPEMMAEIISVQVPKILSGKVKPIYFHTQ

A short description of assay [4]: DRUGMATRIX: ATPase, Na+/K+ enzyme inhibition (substrate: ATP). Format: tissue-based, Sus scrofa, Heart. The conditions noted are these: Not Active = under 50% inhibition at 10 µM.
A short description of assay [5]: DRUGMATRIX: Calcium Channel Type L, Benzothiazepine radioligand binding (ligand: [3H] Diltiazem). Format: cell membranes, Rattus norvegicus, Wistar, Brain, Membrane. The settings on record: Not Active = under 50% inhibition at 10 µM.

Sequence of Vascular endothelial growth factor receptor 1 (P17948 whole entry): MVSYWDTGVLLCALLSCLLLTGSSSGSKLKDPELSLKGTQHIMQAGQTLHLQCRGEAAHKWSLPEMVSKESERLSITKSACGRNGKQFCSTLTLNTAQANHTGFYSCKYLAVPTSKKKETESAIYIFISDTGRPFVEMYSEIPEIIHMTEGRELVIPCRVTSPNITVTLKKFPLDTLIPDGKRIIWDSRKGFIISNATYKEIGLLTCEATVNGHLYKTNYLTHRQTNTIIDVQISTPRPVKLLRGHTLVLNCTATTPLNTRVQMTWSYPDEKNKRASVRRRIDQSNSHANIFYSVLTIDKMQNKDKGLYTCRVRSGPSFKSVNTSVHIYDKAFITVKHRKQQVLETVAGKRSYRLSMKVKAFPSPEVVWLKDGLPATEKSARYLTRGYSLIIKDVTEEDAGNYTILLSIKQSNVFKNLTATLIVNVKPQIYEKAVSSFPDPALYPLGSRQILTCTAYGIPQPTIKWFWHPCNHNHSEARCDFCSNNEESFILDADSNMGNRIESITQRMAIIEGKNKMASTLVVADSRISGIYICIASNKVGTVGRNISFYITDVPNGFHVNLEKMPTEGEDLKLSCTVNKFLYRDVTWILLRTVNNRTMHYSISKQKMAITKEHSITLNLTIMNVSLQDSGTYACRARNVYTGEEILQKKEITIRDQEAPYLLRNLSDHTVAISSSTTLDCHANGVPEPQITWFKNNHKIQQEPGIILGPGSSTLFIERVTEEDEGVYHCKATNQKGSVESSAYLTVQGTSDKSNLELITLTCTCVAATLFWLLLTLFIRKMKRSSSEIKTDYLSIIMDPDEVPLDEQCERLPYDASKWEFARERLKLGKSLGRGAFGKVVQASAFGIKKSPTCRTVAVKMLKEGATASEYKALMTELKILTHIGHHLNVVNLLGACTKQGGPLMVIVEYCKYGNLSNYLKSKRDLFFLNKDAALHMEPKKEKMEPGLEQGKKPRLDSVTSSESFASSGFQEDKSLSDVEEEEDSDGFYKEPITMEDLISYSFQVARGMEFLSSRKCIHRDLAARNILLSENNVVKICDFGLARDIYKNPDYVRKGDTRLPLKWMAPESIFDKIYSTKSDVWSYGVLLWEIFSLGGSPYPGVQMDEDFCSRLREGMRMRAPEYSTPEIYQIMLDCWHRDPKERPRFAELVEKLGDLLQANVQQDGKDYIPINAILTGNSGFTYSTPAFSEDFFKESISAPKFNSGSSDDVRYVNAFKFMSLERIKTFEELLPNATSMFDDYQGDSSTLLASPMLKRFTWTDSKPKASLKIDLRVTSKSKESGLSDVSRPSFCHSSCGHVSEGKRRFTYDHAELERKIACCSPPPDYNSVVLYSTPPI

Regarding `CCN(CC)CCOc1ccc(/C(=C(/Cl)c2ccccc2)c2ccccc2)cc1` [ENCLOMIPHENE], the IC50 entry in assay [1] is “Not Active”; at Interstitial collagenase it was “Not Active”; in assay [2] (read-out: IC50) it was 346 nM; at Cytochrome P450 2D6, 10000 nM; in assay [3], “Not Active”; on Androgen receptor, “Not Active”.
For the compound `CO[C@@H]1[C@@H](OC)[C@H](C)[C@@](O)(CC(=O)O)O[C@H]1[C@H](C)[C@H]1O[C@@]2(CC[C@@](C)([C@H]3CC[C@@](C)([C@@H]4O[C@@H]([C@H]5O[C@](C)(O)[C@H](C)C[C@@H]5C)C[C@@H]4O[C@@H]4C[C@H](OC)[C@@H](OC)[C@H](C)O4)O3)O2)C[C@H](O)[C@H]1C` [MADURAMICIN ACID], the IC50 entry in assay [1] is “Not Active”; in assay [4], “Not Active”; at Interstitial collagenase it was “Not Active”; in assay [2] (platelet), “Not Active”; on Cytochrome P450 2D6, 1000 nM; in assay [3], “Not Active”. The IC50 entry in assay [5] was “Not Active”. Besides, the Ki entry in assay [4] and in assay [5] was “Not Active” in each case.
As for `CN(C/C=C/C#CC(C)(C)C)Cc1cccc2ccccc12` [TERBINAFINE], the IC50 entry in assay [1] was “Not Active”; in assay [4], “Not Active”; against Interstitial collagenase, “Not Active”; in assay [2] (platelet), “Not Active”; on Cytochrome P450 2D6, 200 nM; in assay [3], “Not Active”. The IC50 entry in assay [5] is given as “Not Active”. The Ki result in assay [4] and in assay [5] was “Not Active” throughout.
With MANGANESE CHLORIDE ANHYDROUS, the IC50 result (in assay [1]; in assay [4]; against Interstitial collagenase; in assay [2] (platelet); in assay [3]; on Androgen receptor) was “Not Active” throughout. Further, the IC50 entry in assay [5] was “Not Active”. Besides, the Ki result (in assay [1]; in assay [4]; at Interstitial collagenase; in assay [2] (platelet); in assay [3]; on Androgen receptor) was “Not Active” in each case. Also, the Ki entry in assay [5] is “Not Active”.
On to `Nc1cc(N2CCCCC2)nc(N)[n+]1[O-]` [MINOXIDIL], for which the IC50 result (in assay [1]; in assay [4]; on Interstitial collagenase; in assay [2] (platelet); in assay [3]; at Androgen receptor) was “Not Active” throughout. Besides, the IC50 result in assay [5] is on record as “Not Active”. The Ki entry in assay [4] and in assay [5] was “Not Active” each time.
`COc1c2occc2cc2ccc(=O)oc12` [METHOXSALEN]: the IC50 result (in assay [1]; in assay [4]; at Interstitial collagenase; in assay [2] (platelet); in assay [3]; against Androgen receptor) was “Not Active” throughout. For the same compound, the IC50 result in assay [5] is “Not Active”. Besides, the Ki result in assay [4] and in assay [5] was “Not Active” in each case.
With `CC(c1cc2ccccc2s1)N(O)C(N)=O` (stereo not drawn) [ZILEUTON], the IC50 entry (in assay [1]; in assay [4]; against Interstitial collagenase; in assay [2] (platelet); in assay [3]; on Androgen receptor) was “Not Active” in each case. In assay [5], the IC50 result is reported as “Not Active”. In addition, the Ki result in assay [4] and in assay [5] was “Not Active” each time.
Turning to `CCN1CCC[C@H]1CNC(=O)c1cc(S(N)(=O)=O)ccc1OC` [LEVOSULPIRIDE], the IC50 entry (in assay [1]; in assay [4]; against Interstitial collagenase; in assay [2] (platelet); in assay [3]; at Androgen receptor) was “Not Active” throughout. Further, the IC50 result in assay [5] is recorded as “Not Active”. The Ki entry in assay [4] and in assay [5] was “Not Active” in each case.
Regarding `CCCCOc1cc(CC2CNC(=O)N2)ccc1OC` (stereo not drawn) [RO-201724], the IC50 result (in assay [1]; in assay [4]; at Interstitial collagenase; in assay [2] (platelet); in assay [3]; against Androgen receptor) was “Not Active” each time. Further, in assay [5], the IC50 entry is “Not Active”. Besides, the Ki result in assay [4] and in assay [5] was “Not Active” in each case.
